Converted amounts (≈) assume the structure as drawn.
Assays:
[1] = tested on: Lif (Leukemia inhibitory factor); test: Quantitative RT-PCR, relative gene expression of Lif in SH-SY5Y cells; type: cell-based, human; conditions: 30 μM each
Method: (§1) SH-SY5Y cell lines, which were provided by the institute of human genetics of university hospital Eppendorf and which they in turn received from Braunschweig resource center, were used again for the RT-PCR experiments (reverse transcriptase polymerase chain reaction) carried out for this purpose.
(§2) The cells were incubated in MEM (Minimum essential medium, Life Technologies) with 10% FCS (fetal calf serum, Biochrom AG) and penicillin/streptomycin (Biochrom AG). The cells were seeded with a density of 1×10^5 cells/cm^2 in 25 cm^2 cell culture bottles (Falcon, cell culture treated) with 5 mL medium. Stock solutions of 10 mmol/L of compounds 9-methyl-β-carboline (AC-002 or 9MβC) and 6-fluoro-9-methyl-β-carboline (AC-102 or 6F9MβC), respectively were prepared in distillated water and sterile filtered. One day after the cell seeding the compounds were added in corresponding amounts (5-55 μL) to reach final concentration in the medium of 10 μM, 20 μM and 30 μM for 6F9MβC and 30 μM, 50 μM and 70 μM for 9MβC. The references received only the corresponding amount of solvent (distilled water). The medium was changed once a week.
(§3) The cells were regularly microscopically examined and harvest after 2, 7 and 14 days of incubation time, washed with PBS and immediately frozen at −80° C.
(§4) The RNA-isolation was done with the HighPure RNA Isolation kit of the company Roche. This isolation includes a DNaseI digestion. The concentration of RNA was measured with nanoDrop spectrometer and the RNA integrity was determined with the aid of the Bioanalyzer 2100 (Agilent). By using random hexamer primers, protector RNA inhibitor (Roche) and transcriptor reverse transcriptase (fermentas), 300 ng RNA were transcribed into cDNA per each sample.
(§5) After the reaction, this run was diluted 1:4 and thereof 2 μL per each quantitative RT-PCR were used. This was performed in a LightCycler 480 under standard conditions in the SybrGreen format with annealing temperatures determined for each primer individually. If possible, exon spanning primers were used.
(§6) The specificity was verified by melting curve analysis and subsequent gel electrophoresis. For each PCR the PCR efficiency and the Cq value was determined by the program LinRegPCR and these were used in further calculations. B2M (β2-microglobulin) was identified from multiple reference genes to be suitable for examination conditions. All results are results relative to the corresponding reference conditions, at which only solvent was administered for the specified period of time (i.e. 2 days, 7 days or 14 days). In FIGS. 5A to 5I are also relative gene expressions (relative to reference conditions) presented. Here, the 2-day exposition is presented in light grey, the 7-day exposition in dark grey and the 14-day exposition in black. Every measured value from FIGS. 5A-5I represents a mean value of 3 independent biologic samples.
(§7) Analogous to example 4 RT-PCR experiments with the inventive active agent 7-fluoro-9-methyl-β-carboline (7F9MβC) were also performed for some important cellular factors. The experimental procedure was here identical to the experiments with 6-fluoro-9-methyl-β-carboline and 9-methyl-β-carboline. Here the same (like for 6F9MβC) final concentrations of 30 μM, 50 μM and 70 μM 7F9MβC for the culture medium were employed. The examined factors were BDNF (brain-derived neurotrophic factor), Lif (Leukemia inhibitory factor), DRD2S (short variant of dopamine receptor subtype 2) as well as DKK1 (Dickkopf-related protein 1). The same primers, that were already listed for the respective target genes in example 4 (Tab. 1) were used. As already noted, especially BDNF and Lif belongs to the most important factors for cellurar repair processes after traumas in the inner ear.

[2] = guinea pig, in vivo
Method: For better evaluation of half times of 9-methyl-β-carboline (9MβC), 6-fluoro-9-methyl-β-carboline (6F9MβC) and 7-fluoro-9-methyl-β-carboline (7F9MβC) in animal organism and more precisely in perilymph (the notified site of action), experiments with guinea pigs were conducted. Therefore, the respective active agent (in total 1.4 mg active agent per ear), packed in 40 μl of a hydrogel (18% Poloxamer 407 and 0.6% alginate), was administered at once in front of the membrane of the round window of narcotized guinea pigs. […] After expiry of the desired time (20 min, 2 h, 8 h or 24 h), each time 5 μL perilymph were removed under anesthesia from the top of the cochlea (apex). Subsequently, the animal was killed. Per each time (20 min, 2 h, 8 h or 24 h) measured values were taken of at least ears and averaged.
The concentration of the corresponding active agent in perilymph samples was determined by high-performance liquid chromatography (HPLC, partly also named as high-pressure liquid chromatography) and measurement of auto fluorescence of the respective active agent. For HPLC the eluent consisted to 45% of 90% acetonitrile and to 55% of ammonium acetate (40 mM, pH<5). The flow rate was 0.4 mL/min and injection volume was 10 μL. Each sample was diluted with 60% methanol, if the signal was too strong. After each run the injection needle was washed with 100% isopropanol. The detection limit was 20 fmol/L.
From the determined active agent concentrations the elimination half times were then calculated.

[3] = tested on: BDNF (brain-derived neurotrophic factor); test: Quantitative RT-PCR, relative gene expression of BDNF in SH-SY5Y cells; type: cell-based, human; conditions: 30 μM each
Method: as §1, §2, §3
The RNA-isolation was done with the HighPure RNA Isolation kit of the company Roche. […] The concentration of RNA was measured with nanoDrop spectrometer and the RNA integrity was determined with the aid of the Bioanalyzer 2100 (Agilent). […]
After the reaction, this run was diluted 1:4 and thereof 2 μL per each quantitative RT-PCR were used. This was performed in a LightCycler 480 under standard conditions in the SybrGreen format with annealing temperatures determined for each primer individually. […]
The specificity was verified by melting curve analysis and subsequent gel electrophoresis. For each PCR the PCR efficiency and the Cq value was determined by the program LinRegPCR and these were used in further calculations. […] Every measured value from FIGS. 5A-5I represents a mean value of 3 independent biologic samples. […]

[4] = tested on: DKK1 (Dickkopf-related protein 1); test: Quantitative RT-PCR, relative gene expression of DKK1 in SH-SY5Y cells; type: cell-based, human; conditions: 30 μM each
Method: as §1, §2, §3, §4, §5, §6
as §7, with “The same primers, that were already listed for the respective target genes in example 4 (Tab. 1) were used. As already noted, especially BDNF and Lif belongs to the most important factors for cellurar repair processes after traumas in the inner ear.” left out

[5] = tested on: DRD2S (short variant of dopamine receptor subtype 2); test: Quantitative RT-PCR, relative gene expression of DRD2S in SH-SY5Y cells; type: cell-based, human; conditions: 30 μM each
Method: as §1, §2, §3, §4, §5, §6, §7

hearing threshold = test: Acoustically evoked potentials: hearing threshold after acoustic trauma; type: in vivo; conditions: guinea pig, total 0.35 mg per ear
Method: (§8) To trigger an acoustic trauma, guinea pigs were anesthetized with 60 mg/kg ketamine and 8 mg/kg xylazine. Then Bepanten ointment (Bayer) was administered to the eyes and the animal was put in a soundproof chamber. A calibrated speaker was placed directly above the head of the animal, wherein it was set to emit a half octave band, centered around 8 kHz, with a volume of 110 dB for duration of 30 minutes.
As measure for evaluation of the hearing threshold of the guinea pig acoustically evoked potentials were measured. Therefore, the electrophysiological activity of the nerve cells in the brain stem that forward impulses from the inner ear was derived after sonication of the ear with 8, 11.3, 16, 22.6 and 32 kHz. The sonification was carried out ascendingly from 0 dB to 90 dB in single steps of 5 dB.
The measurement was carried out 3 days before the acoustic trauma (D-3), 30 minutes after the acoustic trauma (D0) as well as 14 days after the acoustic trauma (D14).
Per animal one ear was not treated and used as intra-individual control (hierin partly abbreviated to “contr.”) and the second ear was treated with 6-fluoro-9-methyl-β-carboline. Therefore, one hour after the acoustic trauma a dose of 0.12 mg 6-fluoro-9-methyl-β-carboline (in a hydrogel as vehicle) was administered intratympanically. 3 days after the acoustic trauma a further intratympanic administration of 0.06 mg 6-fluoro-9-methyl-β-carboline was carried out. The measurements were conducted on four guinea pigs (n=4).
Afterwards, the remaining shift of hearing threshold (also named as permanent shift of hearing threshold) was determined from the measured values before the acoustic trauma (D-3) and after 14 days (D14). From the measured values directly after the acoustic trauma (D0) and after 14 days (D14) the recovery from the trauma (D0-D14) was also determined.
Analogous to the above performed experiments with 6-fluoro-9-methyl-β-carboline, also corresponding experiments with 9-methyl-β-carboline were performed. The experimental procedure was nearly identical, wherein of course 9-methyl-β-carboline instead of 6-fluoro-9-methyl-β-carboline was used. The total dose of 9-methyl-β-carboline was here 0.2 mg and 0.35 mg per ear, respectively.

[6] = tested on: outer hair cells (OHC) in the inner ear; test: Immunohistochemical experiments: dying of outer hair cells after acoustic trauma; type: in vivo; conditions: guinea pig, intratympanic, total 0.2 mg per ear, day 14
Method: as §8, with “induce” for “trigger”
The thermosensitive, liquid mixture was administered under view by a Hamilton syringe directly in front of the round window membrane of the middle ear (10 μL). The first dose 6-fluoro-9-methyl-β-carboline (e.g. 0.07 mg) was administered one hour after the acoustic trauma in a concentration of 0.007 mg/μL and the second dose 6-fluoro-9-methyl-β-carboline (0.035 mg in a volume of 5 μL) on day 3. Here, only one ear per animal was treated, while the second ear served as intra-individual control. The control here is particularly abbreviated to “contr.”. In comparative experiments it was found, that administration of just an active agent vehicle (hydrogel) has no effect in comparison to a fully untreated ear. For each active agent (including the controls) four guinea pigs were examined.
On day 14 after the acoustic trauma the region of the ear was dissected so that it contained the cochlea. […] In this way the sound induced damage can be localized and quantified. […]

physchem = conditions: water
Method: Furthermore, the solubility of both compounds in water was determined by preparing concentration series of both compounds in water at room temperature. The concentration at which the compound was barely soluble was determined by external calibration. The corresponding concentration was quantified by HPLC.

[7] = tested on: human neuroblastoma cells (SH-SY5Y); test: Differentiation of human neuroblastoma cells (SH-SY5Y), morphological examination; type: cell-based
Method: The SH-SY5Y cell line was obtained from the German collection of microorganisms and cell cultures—DSMZ, Braunschweig. The cells were cultivated in MEM (Minimum essential medium, Life Technologies) with 10% FCS (fetal calf serum, Biochrom AG) and penicillin/streptomycin (Biochrom AG). For morphological examinations the cells were seeded in a density of 1.5×10^4 cells/cm^2 in 24-well plates (Falcon, cell culture treated) with 1 mL medium. A stock solution of 10 mmol/L of the compound according to the invention 6-fluoro-9-methyl-β-carboline was prepared in 50% ethanol and sterile filtered. Five hours after seeding of the cells the compound according to the invention 6-fluoro-9-methyl-β-carboline was added in the corresponding amount to the medium achieving the desired final concentration. The medium was changed once a week. The cells were regularly microscopically examined. Microscopic images were taken at BZ Keyence 10 with a 10×lens and 4×digital zoom. An automatic contrast enhancement was made with the program BZ Analyzer.

| SMILES | Lif expression relative to expression induced by 9MβC ([1]; 2-day exposition) | Lif expression relative to expression induced by 9MβC ([1]; 7-day exposition) | Lif expression relative to expression induced by 9MβC ([1]; 14-day exposition) | elimination half time [2] | BDNF expression relative to expression induced by 9MβC ([3]; 2-day exposition) | BDNF expression relative to expression induced by 9MβC ([3]; longer expositions (7 and 14 days)) | DKK1 expression relative to expression induced by 9MβC ([4]; 2-day exposition) [times] | DKK1 expression relative to expression induced by 9MβC ([4]; 7-day exposition) | DKK1 expression relative to expression induced by 9MβC ([4]; 14-day exposition) [times] | DRD2S expression relative to expression induced by 9MβC ([5]; 2-day exposition) | DRD2S expression relative to expression induced by 9MβC ([5]; 7-day exposition) | DRD2S expression relative to expression induced by 9MβC ([5]; 14-day exposition) | improvement of the recovery of hearing threshold (D1-D14) vs untreated control (hearing threshold) | acoustic trauma-induced dying of outer hair cells [6] | solubility (physchem) [µg/mL] | neurite growth as indication of differentiation ([7]; 50 μM, compared to 30 μM 6-fluoro-9-methyl-β-carboline) | concentration at which a comparable differentiation of the tested cells is observed ([7]; SH-SY5Y, 15 days incubation) |
| --- | --- | --- | --- | --- | --- | --- | --- | --- | --- | --- | --- | --- | --- | --- | --- | --- | --- |
| Cn1c2cnccc2c2ccc(F)cc21 [7F9MβC, 7-fluoro-9-methyl-β-carboline] | approximately three times higher | weaker | comparable | approximately 5.0 h | approximately three times higher | comparable | 1.4 | comparable | 2.2 | twice as high | comparable | slightly weaker |  |  |  |  |  |
| Cn1c2ccccc2c2ccncc21 [9MβC, 9-methyl-β-carboline] |  |  |  | approximately 3.4 h |  |  |  |  |  |  |  |  | about 10 dB | could counteract the dying of outer hair cells | 168 (≈ 924 µM) | too low neurite growth | approximately 70 μM |
